Data published in patent US20070287830A1, “Trisazo Dye, Composition Containing the Same for Anisotropic Dye Film, Anisotropic Dye Film, and Polarizing Element” (Mitsubishi Chemical Corporation, priority 2004, published 2007).

Legend:
[1] = degree of polarization of anisotropic dye film formed by wet system film-forming method; type: physicochemical
Source text: In the following Examples, the degree of polarization was obtained by measuring the transmittance of an anisotropic dye film by a spectrophotometer having an iodine type polarizing element disposed in an incident optical system, followed by calculation in accordance with the following formula: Degree of polarization (P %)={(Ty−Tz)/(Ty+Tz)}×100
Tz: transmittance of a dye film for a polarized light in the absorption axis direction
Ty: transmittance of a dye film for a polarized light in the polarization axis direction
On the other hand, as a substrate, a glass substrate having a polyimide oriented film formed thereon by silk printing (75 mm×25 mm, thickness 1.1 mm, the polyimide oriented film with a polyimide film thickness of about 800 Å preliminarily subjected to rubbing treatment with cotton cloth) was prepared. […]
The transmittance (Tz) of the obtained anisotropic dye film for a polarized light having a plane of vibration in the absorption axis direction in the plane of the dye film and the transmittance (Ty) for a polarized light having a plane of vibration in the polarization axis direction in the plane of the dye film were measured and shown in FIG. 1. […]

[2] = transmission chromaticity and excitation purity of dye aqueous solution under standard illuminant D65; type: physicochemical
Protocol: Here the excitation purity is obtained in such a manner that the chromaticity coordinates N of standard illuminant and the chromaticity coordinates C of the obtained dye in the chromaticity diagram are connected with a straight line, and the wavelength corresponding to the intersection point of the extension of the straight line and the spectrum locus is taken as the dominant wavelength, and the excitation purity is calculated from the proportion at the respective points. The chromaticity coordinate C can be obtained in such a manner that the dye is added to water to obtain a dye aqueous solution, the visible light transmittance of the aqueous solution is measured by a spectrophotometer, and the chromaticities x and y in the CIE 1964 supplementary standard […] system under standard illuminant D65 are calculated.
The excitation purity of the dye in the present invention means one measured and calculated with respect to the dye aqueous solution obtained by adding the dye to water and the excitation purity of the anisotropic dye film means one measured and calculated with respect to a film formed by applying a composition for an anisotropic dye film described hereinafter in detail to a substrate. […]

**Q.** With `COc1cc(N=Nc2c(S(=O)(=O)O)cc3ccc(N=Nc4cc(S(=O)(=O)O)c(N)cc4N)cc3c2O)c(OC)cc1N=Nc1ccc(OC)c(S(=O)(=O)O)c1` [dye No. (1-1)] as the compound, how does the “degree of polarization (P %) (light absorption anisotropy)” value ([1]; spin coated on rubbed polyimide/glass, from about 500 nm to about 650 nm) read?
**A.** at least 80%

**Q.** What about the “degree of polarization (P %)” value ([1]; vicinity of maximum absorption wavelength, from 550 nm to 600 nm) of the same compound?
**A.** at least 90%

**Q.** What about the “trail of the chromaticity of the aqueous solution at the respective dye concentrations” value ([2]; C.I.E. chromaticity diagram, 10% (or 5 wt %), 1,000 ppm and 10 ppm) of the same compound?
**A.** passed near the chromaticity (w) of standard illuminant D65

**Q.** And the “excitation purity (pe)” value ([2]; dye aqueous solution at a concentration of 10%, optical path length 0.01 mm, D65)?
**A.** 17%
